Eight compounds from ChEMBL document CHEMBL1127553, “Derivatives of a novel cyclopeptolide. 2. Synthesis, activity against multidrug resistance in CHO and KB cells in vitro, and structure-activity relationships” (1994) can be followed below.

Structures are written as SMILES.

Common to all, as to format: functional, Cricetulus griseus
In experiment [1] the test system is CHO. The experiment can be described thus: The sensitizing capacity for colchicine treatment of multi drug resistance (MDR) CHO cell at concentration 1.0(mg/L).
Experiment [2] concerns CHO. Put plainly: The sensitizing capacity for colchicine treatment of multi drug resistance(MDR) in CHO cell at concentration 0.1(mg/L).
The test system of experiment [3] is CHO. Put plainly: Sensitization of colchicine treated parental (PAR)CHO cells, measured at concentration 0.1(mg/L).
For experiment [4], the system named is CHO. The experiment can be described thus: The sensitizing capacity for colchicine treatment of parental (PAR)CHO cells at concentration 1.0 (mg/L).

Consider `CC[C@@H](C)[C@H]1C(=O)N(C)CC(=O)N(C)[C@@H](C(C)C)C(=O)N(C)[C@@H](Cc2ccc(OC)cc2)C(=O)O[C@H](C)C(=O)N2CCCC[C@H]2C(=O)N(C)[C@@H](C(C)C)C(=O)N(C)[C@@H](C(C)C)C(=O)N(C)[C@H](CC(=O)OC)C(=O)N(C)[C@@H]([C@@H](C)CC)C(=O)N1C`, for which the Activity with CHO [1] came to 5.5; with CHO [2], 1.1; in the experiment on CHO [3], 1.3; in the experiment with CHO [4], 4.6.

As for `CC[C@@H](C)[C@H]1C(=O)NCC(=O)N(C)[C@@H](C(C)C)C(=O)N[C@@H](Cc2ccc(OC)cc2)C(=O)O[C@H](C)C(=O)N2CCCC[C@H]2C(=O)N(C)[C@@H](C(C)C)C(=O)N[C@@H](C(C)C)C(=O)N(C)[C@H](CC(=O)NC(C)(C)C)C(=O)N(C)[C@@H]([C@@H](C)CC)C(=O)N1C`, the Activity in the experiment with CHO [1] stood at 151; with CHO [2] it was 4.1; with CHO [3], 4.4; in the experiment on CHO [4] it was 8.4.

For the compound `CC[C@H](C)[C@H]1C(=O)NCC(=O)N(C)[C@@H](C(C)C)C(=O)N[C@@H](Cc2ccc(OC)cc2)C(=O)O[C@H](C)C(=O)N2CCCC[C@H]2C(=O)N(C)[C@@H](C(C)C)C(=O)N[C@@H](C(C)C)C(=O)N(C)[C@@H](CC(=O)NCc2ccco2)C(=O)N(C)[C@@H]([C@@H](C)CC)C(=O)N1C`, the Activity with CHO [1] is 91; in the experiment with CHO [2], 1.6; with CHO [3] it was 6.8; with CHO [4] it was 10.

For `C=CCOc1ccc(C[C@@H]2NC(=O)[C@H](C(C)C)N(C)C(=O)CNC(=O)[C@H]([C@@H](C)CC)N(C)C(=O)[C@H]([C@@H](C)CC)N(C)C(=O)[C@H](CC(=O)OC(C)(C)C)N(C)C(=O)[C@H](C(C)C)NC(=O)[C@H](C(C)C)N(C)C(=O)[C@@H]3CCCCN3C(=O)[C@@H](C)OC2=O)cc1`, the Activity with CHO [1] is recorded as 9.6; with CHO [2], 1.5; in the experiment with CHO [3] it was 5.8; in the experiment with CHO [4] it was 11.

For the compound `CC[C@H](C)[C@H]1C(=O)N(C)[C@@H]([C@@H](C)CC)C(=O)NCC(=O)N(C)[C@@H](C(C)C)C(=O)N[C@@H](Cc2ccc(OC)cc2)C(=O)O[C@H](C)C(=O)N2CCCC[C@H]2C(=O)N(C)[C@@H](C(C)C)C(=O)N[C@@H](C(C)C)C(=O)N(C)[C@H](CN(C)C(C=O)C/C=C/C(=O)OC(C)(C)C)C(=O)N1C` (some centres not stated), the Activity stood at 97 in the experiment on CHO [1], 19 in the experiment with CHO [2], 7.6 with CHO [3] and 8.7 in the experiment on CHO [4].

`CC[C@@H](C)[C@H]1C(=O)N(C)CC(=O)N(C)[C@@H](C(C)C)C(=O)N(C)[C@@H](Cc2ccc(OC)cc2)C(=O)O[C@H](C)C(=O)N2CCCC[C@H]2C(=O)N(C)[C@@H](C(C)C)C(=O)N(C)[C@@H](C(C)C)C(=O)N(C)[C@H](CC(=O)OC(C)(C)C)C(=O)N(C)[C@@H]([C@@H](C)CC)C(=O)N1C`: the Activity in the experiment with CHO [1] was 24; in the experiment with CHO [2], 1.2; with CHO [3], 3.6; in the experiment on CHO [4], 8.7.

On to `CC[C@@H](C)[C@H]1C(=O)NCC(=O)N(C)[C@@H](C(C)C)C(=O)N[C@@H](Cc2ccc(OC)cc2)C(=O)O[C@H](C)C(=O)N2CCCC[C@H]2C(=O)N(C)[C@@H](C(C)C)C(=O)N[C@@H](C(C)C)C(=O)N(C)[C@H](CC(=O)N(C)C)C(=O)N(C)[C@@H]([C@@H](C)CC)C(=O)N1C`, for which the Activity stood at 36 in the experiment with CHO [1], 1.2 in the experiment with CHO [2], 5.9 with CHO [3] and 8.5 with CHO [4].

On to `CC[C@H](C)[C@H]1C(=O)NCC(=O)N(C)[C@@H](C(C)C)C(=O)N[C@@H](Cc2ccc(O)cc2)C(=O)O[C@H](C)C(=O)N2CCCC[C@H]2C(=O)N(C)[C@@H](C(C)C)C(=O)N[C@@H](C(C)C)C(=O)N(C)[C@@H](CC(=O)OC(C)(C)C)C(=O)N(C)[C@@H]([C@@H](C)CC)C(=O)N1C`, for which the Activity in the experiment on CHO [1] is recorded as 172; in the experiment with CHO [2] it was 2.5; with CHO [3] it was 6.5; in the experiment on CHO [4], 14.
